{"source": "patent US20040101484A1", "about": "“Nasal delivery of apomorphine in combination with glycol derivatives” (priority 1998, published 2004)", "key": {"[1]": {"test_system": "patients suffering from erectile dysfunction", "conditions": "intranasal delivery, 2.5 mg to 3.5 mg; cited from earlier work"}, "healthy male subjects": {"test_system": "healthy male subjects", "test": "Adverse nasal effects after nasal administration of apomorphine HCl formulations to male subjects (Examples 1-6)", "type": "in vivo, human", "procedure": "A series of experiments were performed to illustrate features and advantages of the present invention. Several conditions were common to each experiment. […] Further, none of the subjects took any medication for two weeks prior to these experiments.\nA different dosage of apomorphine was administered in each experiment to determine a preferred range of dosages having minimal adverse effects."}, "[2]": {"test_system": "patients suffering from psychogenic erectile dysfunction", "test": "In-clinic efficacy and safety study of nasal apomorphine HCl, double blind double dummy placebo controlled cross over, self graded questionnaire", "type": "in vivo, human", "conditions": "nasal administration, containing propylene glycol"}, "[3]": {"conditions": "0.5 mg, without glycol derivatives, three subjects"}, "[4]": {"conditions": "2.0 mg, without glycol derivatives, nine subjects"}}, "data": [{"smiles": "CN1CCc2cccc3c2[C@H]1Cc1ccc(O)c(O)c1-3", "note": "[apomorphine]", "values": [{"measurement": "Eliciting an erection", "setting": "[1]", "result": "effective for eliciting an erection"}, {"measurement": "Side effects suffered by study participants", "setting": "[1]", "result": "extensive and serious side effects including hypotension, nausea, vomiting, impaired vision, diaphoresis and ashen coloring"}, {"measurement": "Adverse nasal effects (overall conclusion)", "setting": "healthy male subjects; 0.5 mg, does not contain glycol derivatives", "result": "some adverse nasal effects"}, {"measurement": "Number of subjects who did not suffer any symptoms", "setting": "healthy male subjects; [3]", "result": "One"}, {"measurement": "Number of subjects who suffered from mild nasal burning or pain", "setting": "healthy male subjects; [3]", "result": "two"}, {"measurement": "Adverse nasal effects (overall conclusion)", "setting": "healthy male subjects; 1.0 mg dose, does not contain glycol derivatives", "result": "some adverse nasal effects"}, {"measurement": "Adverse nasal effects (overall conclusion)", "setting": "healthy male subjects; 1.0 mg, composition with propylene glycol (Table 5), six subjects", "result": "none of the subjects suffered from adverse nasal effects"}, {"measurement": "Adverse nasal effects (overall conclusion)", "setting": "healthy male subjects; 2.0 mg, composition with propylene glycol (Table 6), six subjects", "result": "none of the subjects suffered from adverse nasal effects"}, {"measurement": "Adverse nasal effects (overall conclusion)", "setting": "healthy male subjects; 2.0 mg, without glycol derivatives", "result": "some adverse nasal effects"}, {"measurement": "Number of subjects who suffered from mild nasal burning", "setting": "healthy male subjects; [4]", "result": "One"}, {"measurement": "Number of subjects who suffered from mild to moderate nasal burning", "setting": "healthy male subjects; [4]", "result": "one"}, {"measurement": "Number of subjects who suffered from mild unusual taste", "setting": "healthy male subjects; [4]", "result": "four"}, {"measurement": "Adverse nasal effects (overall conclusion)", "setting": "healthy male subjects; 4.0 mg, does not contain glycol derivatives", "result": "some adverse nasal effects"}, {"measurement": "Number of subjects who experienced moderate sneezing, somewhat troublesome", "setting": "healthy male subjects; 4.0 mg, does not contain glycol derivatives, two subjects", "result": "One"}, {"measurement": "Induction of an erection (overall conclusion)", "setting": "[2]", "result": "effective in inducing an erection"}, {"measurement": "Induction of an erection compared with nasal placebo or Viagra", "setting": "[2]; listed as apomorphine HCI", "result": "more effective than a nasal placebo or Viagra in inducing an erection"}, {"measurement": "Induction of an erection compared with nasal placebo or Viagra", "setting": "[2]; listed as apomorphine HCl", "result": "more effective than nasal placebo or Viagra in inducing an erection"}]}]}
